Test results as given in ChEMBL document CHEMBL5634182, “Antifungal Pseuboyenes A-J, Bergamotene-Derived Sesquiterpenoids from a Cold-Seep-Derived Pseudallescheria boydii” (J Nat Prod, 2024).

Tests used:
[1] = test system: Escherichia coli; test: Antibacterial activity against Escherichia coli EMBLC-1 assessed as reduction in microbial growth by broth microdilution method; type: functional
[2] = test system: Edwardsiella tarda; test: Antibacterial activity against Edwardsiella tarda QDIO-2 assessed as reduction in microbial growth by broth microdilution method; type: functional
[3] = test system: Micrococcus luteus; test: Antibacterial activity against Micrococcus luteus QDIO-3 assessed as reduction in microbial growth by broth microdilution method; type: functional
[4] = test system: Pseudomonas aeruginosa; test: Antibacterial activity against Pseudomonas aeruginosa QDIO-4 assessed as reduction in microbial growth by broth microdilution method; type: functional
[5] = test system: Vibrio anguillarum; test: Antibacterial activity against Vibrio anguillarum QDIO-6 assessed as reduction in microbial growth by broth microdilution method; type: functional
[6] = test system: Vibrio harveyi; test: Antibacterial activity against Vibrio harveyi QDIO-7 assessed as reduction in microbial growth by broth microdilution method; type: functional
[7] = test system: Vibrio vulnificus; test: Antibacterial activity against Vibrio vulnificus QDIO-10 assessed as reduction in microbial growth by broth microdilution method; type: functional
[8] = test system: MKN-45; test: Cytotoxicity against human MKN-45 cells assessed as reduction in cell viability at 20 uM; type: functional, cell-based
[9] = test system: A549; test: Cytotoxicity against human A549 cells assessed as reduction in cell viability at 20 uM; type: functional, cell-based
[10] = test system: HCT-116; test: Cytotoxicity against human HCT-116 cells assessed as reduction in cell viability at 20 uM; type: functional, cell-based
[11] = test system: HeLa; test: Cytotoxicity against human HeLa cells assessed as reduction in cell viability at 20 uM; type: functional, cell-based
[12] = test system: K562; test: Cytotoxicity against human K562 cells assessed as reduction in cell viability at 20 uM; type: functional, cell-based
[13] = test system: 786-0; test: Cytotoxicity against human 786-0 cells assessed as reduction in cell viability at 20 uM; type: functional, cell-based
[14] = test system: TE-1; test: Cytotoxicity against human TE-1 cells assessed as reduction in cell viability at 20 uM; type: functional, cell-based
[15] = test system: 5637; test: Cytotoxicity against human 5637 cells assessed as reduction in cell viability at 20 uM; type: functional, cell-based
[16] = test system: GBC-SD; test: Cytotoxicity against human GBC-SD cells assessed as reduction in cell viability at 20 uM; type: functional, cell-based
[17] = test system: L02; test: Cytotoxicity against human L02 cells assessed as reduction in cell viability at 20 uM; type: functional, cell-based
[18] = test system: MCF7; test: Cytotoxicity against human MCF7 cells assessed as reduction in cell viability at 20 uM; type: functional, cell-based
[19] = test system: HepG2; test: Cytotoxicity against human HepG2 cells assessed as reduction in cell viability at 20 uM; type: functional, cell-based
[20] = test system: SF-126; test: Cytotoxicity against human SF-126 cells assessed as reduction in cell viability at 20 uM; type: functional, cell-based
[21] = test system: DU-145; test: Cytotoxicity against human DU-145 cells assessed as reduction in cell viability at 20 uM; type: functional, cell-based
[22] = test system: CAL-62; test: Cytotoxicity against human CAL-62 cells assessed as reduction in cell viability at 20 uM; type: functional, cell-based
[23] = test system: PaTu 8988t; test: Cytotoxicity against human PaTu 8988t cells assessed as reduction in cell viability at 20 uM; type: functional, cell-based
[24] = test system: HOS; test: Cytotoxicity against human HOS cells assessed as reduction in cell viability at 20 uM; type: functional, cell-based
[25] = test system: A-375; test: Cytotoxicity against human A-375 cells assessed as reduction in cell viability at 20 uM; type: functional, cell-based
[26] = test system: A673; test: Cytotoxicity against human A673 cells assessed as reduction in cell viability at 20 uM; type: functional, cell-based
[27] = test system: HEK-293T; test: Cytotoxicity against human HEK293T cells assessed as reduction in cell viability at 20 uM; type: toxicity, cell-based
[28] = test system: Alternaria brassicae; test: Antifungal activity against Alternaria brassicae QDAU-16 assessed as reduction in microbial growth by broth microdilution method; type: functional
[29] = test system: Ceratobasidium cornigerum; test: Antifungal activity against Ceratobasidium cornigerum QDAU-6 assessed as reduction in microbial growth by broth microdilution method; type: functional
[30] = test system: Coniella diplodiella; test: Antifungal activity against Coniothyrium diplodiella QDAU-7 assessed as reduction in microbial growth by broth microdilution method; type: functional
[31] = test system: Colletotrichum gloeosporioides; test: Antifungal activity against Colletotrichum gloeosporioides QDAU-2 assessed as reduction in microbial growth by broth microdilution method; type: functional
[32] = test system: Colletotrichum gloeosporioides; test: Antifungal activity against Colletotrichum gloeosporioides QDAU-17 assessed as reduction in microbial growth by broth microdilution method; type: functional
[33] = test system: Curvularia spicifera; test: Antifungal activity against Curvularia spicifera QDAU-18 assessed as reduction in microbial growth by broth microdilution method; type: functional
[34] = test system: Fusarium graminearum; test: Antifungal activity against Fusarium graminearum QDAU-4 assessed as reduction in microbial growth by broth microdilution method; type: functional
[35] = test system: Fusarium oxysporum; test: Antifungal activity against Fusarium oxysporum QDAU-8 assessed as reduction in microbial growth by broth microdilution method; type: functional
[36] = test system: Fusarium proliferatum; test: Antifungal activity against Fusarium proliferatum QDAU-19 assessed as reduction in microbial growth by broth microdilution method; type: functional
[37] = test system: Penicillium digitatum; test: Antifungal activity against Penicillium digitatum QDAU-14 assessed as reduction in microbial growth by broth microdilution method; type: functional
[38] = test system: Botryosphaeria berengeriana; test: Antifungal activity against Physalospora piricola QDAU-15 assessed as reduction in microbial growth by broth microdilution method; type: functional

SMILES	MIC [1] [µg/mL]	MIC [2] [µg/mL]	MIC [3] [µg/mL]	MIC [4] [µg/mL]	MIC [5] [µg/mL]	MIC [6] [µg/mL]	MIC [7] [µg/mL]	MIC [28] [µg/mL]	MIC [29] [µg/mL]	MIC [30] [µg/mL]	MIC [31] [µg/mL]	MIC [32] [µg/mL]	MIC [33] [µg/mL]	MIC [34] [µg/mL]	MIC [35] [µg/mL]	MIC [36] [µg/mL]	MIC [37] [µg/mL]	MIC [38] [µg/mL]	other results
C=C1CC[C@H](O)C[C@@H]1[C@H](C)C(=O)[C@H](O)C=C(C)C	8	> 64	> 64	> 64	32	> 64	> 64	–	–	–	–	–	–	–	–	–	–	–	Activity [8]: Not toxic; Activity [9]: Not toxic; Activity [10]: Not toxic; Activity [11]: Not toxic; Activity [12]: Not toxic; Activity [13]: Not toxic; Activity [14]: Not toxic; Activity [15]: Not toxic; Activity [16]: Not toxic; Activity [17]: Not toxic; Activity [18]: Not toxic; Activity [19]: Not toxic; Activity [20]: Not toxic; Activity [21]: Not toxic; Activity [22]: Not toxic; Activity [23]: Not toxic; Activity [24]: Not toxic; Activity [25]: Not toxic; Activity [26]: Not toxic; Activity [27]: Non-Toxic
C=C1C(=O)C[C@@]2(C)C[C@@H]1[C@](C)([C@H](O)CC=C(C)C)O2	–	–	–	–	–	–	–	4	8	4	4	8	8	1	4	16	4	4	–
C=C1[C@H](O)C[C@H]2C[C@@H]1[C@](C)([C@H](O)CC=C(C)C)O2	–	–	–	–	–	–	–	8	4	4	4	2	8	2	2	16	8	8	–
C=C1CC[C@@]2(O)C[C@@H]1[C@]2(C)CC(=O)C=C(C)C	> 64	> 64	16	32	> 64	16	8	1	4	4	8	8	2	4	8	8	4	16	–
C=C1CC[C@@]2(O)C[C@@H]1[C@]2(C)[C@@H](CC=C(C)C)OC(C)=O	8	4	> 64	> 64	> 64	16	> 64	8	4	4	4	16	1	2	16	2	8	32	–
C=C1CC[C@@]2(C[C@@H](O)C(=O)OC)C[C@@H]1[C@](C)([C@H](O)CC=C(C)C)O2	> 64	> 64	> 64	> 64	16	> 64	64	8	64	4	4	64	4	4	16	4	8	64	–
